Patent publication US10252987B2, “Type of antiviral compound” (Institute of Medicinal Biotechnology, Chinese Academy of …, priority 2015, dated 2019)

System: HCV
Assay: anti-HCV activity assay in cell culture (HCV RNA by one-step quantitative RT-PCR)
Assay type: cell-based
Details: Hepatitis C virus, Huh7.5, 96 h, compound at 10 μmol/L; Huh7.5 cells infected with HCV virus particles; cultured 96 hrs; HCV RNA in cells vs virus control group; read-out: percent inhibition (%)
Method: The assay results of anti-HCV activity of the compound synthesized according to the present invention in cell culture are shown in Table 1, wherein the molecular weight is calculated by ChemBioDraw 12.0 software from the molecular structure of each compound.
100 μL Huh7.5 cells were seeded in 96-well cell culture plate to 1×10^5/mL density, cultured in an incubator at 37° C. under the condition of 5% CO2 and saturated humidity for 6 hrs. Huh7.5 cells were then infected by viral solution containing HCV virus particles, and solutions of compound of the present invention at a concentration of 10 μmol/L liquid were added respectively, cultured for further 96 hrs, and then total RNA was extracted from the cells. Amount of HCV RNA in cells was determined by one-step quantitative RT-PCR, and compared to RNA levels of the virus control group to calculate the inhibition rate of compounds on HCV.

**Q.** How did the inhibition at 10 µM turn out when Cc1ccc(NCc2cc(N3CCNCC3)ccc2C#N)cc1 [Compound 1, 4-(piperazin-1-yl)-2-((p-methylphenylamino)methyl)benzonitrile] was run?
**A.** 97%

**Q.** For COc1ccc(NCc2cc(N3CCNCC3)ccc2C#N)cc1 [Compound 2, 4-(piperazin-1-yl)-2-(p-methoxyphenylamino)methylbenzonitrile], which inhibition at 10 µM is on record?
**A.** 89%

**Q.** How did the inhibition at 10 µM turn out when Cc1ccc(NCc2cc(N3CCN(C)CC3)ccc2C#N)cc1 [Compound 3, 4-(4-methylpiperazin-1-yl)-2-(p-methylphenylamino)methylbenzonitrile] was run?
**A.** 92%

**Q.** With CN1CCN(c2ccc(C#N)c(CNc3ccccc3)c2)CC1 [Compound 4, 4-(4-methylpiperazin-1-yl)-2-(phenylamino)methylbenzonitrile] as the compound, how does the inhibition at 10 µM read?
**A.** 82%

**Q.** Which inhibition at 10 µM does the source give for Cc1ccc(NCc2cc(N3CCNC(C)C3)ccc2C#N)cc1 (centres unmarked) [Compound 5, 4-(3-methylpiperazin-1-yl)-2-(p-methylphenylamino)methylbenzonitrile] here?
**A.** 88%

**Q.** Cc1ccc(NCc2cc(N3CCCC(N)C3)ccc2C#N)cc1 (centres unmarked) [Compound 6, 4-(3-aminopiperidin-1-yl)-2-(p-methylphenylamino)methylbenzonitrile] was tested. Which inhibition at 10 µM did it give?
**A.** 68%

**Q.** N#Cc1ccc(N2CCNCC2)cc1CNc1ccccc1 [Compound 7, 4-(piperazin-1-yl)-2-(phenylamino)methylbenzonitrile] was tested. Which inhibition at 10 µM did it give?
**A.** 82%

**Q.** How did the inhibition at 10 µM turn out when CN1CCN(c2ccc(C#N)c(CNc3ccc(Cl)cc3)c2)CC1 [Compound 8, 4-(4-methylpiperazin-1-yl)-2-(p-chlorophenylamino)methylbenzonitrile] was run?
**A.** 91%

**Q.** N#Cc1ccc(N2CCNCC2)cc1CNc1ccc(Cl)cc1 [Compound 9, 4-(piperazin-1-yl)-2-(p-chlorophenylamino)methylbenzonitrile] was tested. Which inhibition at 10 µM did it give?
**A.** 92%

**Q.** Which inhibition at 10 µM does the source give for COc1ccc(NCc2cc(N3CCN(C)CC3)ccc2C#N)cc1 [Compound 10, 4-(4-methylpiperazin-1-yl)-2-(p-methoxyphenylamino)methylbenzonitrile] here?
**A.** 90%

**Q.** CN1CCN(c2ccc(C#N)c(CNc3ccc(C4CCCCC4)cc3)c2)CC1 [Compound 11, 4-(4-methylpiperazin-1-yl)-2-(p-cyclohexylphenylamino)methylbenzonitrile] was tested. Which inhibition at 10 µM did it give?
**A.** 97%

**Q.** Which inhibition at 10 µM does the source give for CN1CCN(c2ccc(C#N)c(CNc3ccc(C(C)(C)C)cc3)c2)CC1 [Compound 12, 4-(4-methylpiperazin-1-yl)-2-(p-tert-butylphenylamino)methylbenzonitrile] here?
**A.** 92%

**Q.** For CCc1ccc(NCc2cc(N3CCN(C)CC3)ccc2C#N)cc1 [Compound 13, 4-(4-methylpiperazin-1-yl)-2-(p-ethylphenylamino)methylbenzonitrile], which inhibition at 10 µM is on record?
**A.** 87%

**Q.** Which inhibition at 10 µM does the source give for Cc1ccc(N(C)Cc2cc(N3CCN(C)CC3)ccc2C#N)cc1 [Compound 14, 4-(4-methylpiperazin-1-yl)-2-((p-methylphenyl)(methyl)amino)methylbenzonitrile] here?
**A.** 97%

**Q.** How did the inhibition at 10 µM turn out when CCCN(Cc1cc(N2CCN(C)CC2)ccc1C#N)c1ccc(Cl)cc1 [Compound 15, 4-(4-methylpiperazin-1-yl)-2-((p-chlorophenyl)(propyl)amino)methylbenzonitrile] was run?
**A.** 88%

**Q.** For COc1ccc(N(C)Cc2cc(N3CCN(C)CC3)ccc2C#N)cc1 [Compound 16, 4-(4-methylpiperazin-1-yl)-2-((p-methoxyphenyl)(methyl)amino)methylbenzonitrile], which inhibition at 10 µM is on record?
**A.** 84%

**Q.** With CCCN(Cc1cc(N2CCN(C)CC2)ccc1C#N)c1ccc(C(C)(C)C)cc1 [Compound 17, 4-(4-methylpiperazin-1-yl)-2-((p-tert-butylphenyl)(propyl)amino)methylbenzonitrile] as the compound, how does the inhibition at 10 µM read?
**A.** 96%

**Q.** Which inhibition at 10 µM does the source give for CCCN1CCN(c2ccc(C#N)c(CNc3ccccc3)c2)CC1 [Compound 18, 4-(4-propylpiperazin-1-yl)-2-(phenylamino)methylbenzonitrile] here?
**A.** 75%

**Q.** C=CCN1CCN(c2ccc(C#N)c(CN(C)c3ccc(C(C)(C)C)cc3)c2)CC1 [Compound 19, 4-(4-allylpiperazin-1-yl)-2-((p-tert-butylphenyl)(methyl)amino)methylbenzonitrile] was tested. Which inhibition at 10 µM did it give?
**A.** 86%

**Q.** COc1ccc(N(C)Cc2cc(N3CCN(c4ccccc4)CC3)ccc2C#N)cc1 [Compound 20, 4-(4-phenylpiperazin-1-yl)-2-((p-methoxyphenyl)(methyl)amino)methylbenzonitrile] was tested. Which inhibition at 10 µM did it give?
**A.** 70%

**Q.** How did the inhibition at 10 µM turn out when CC(C)c1ccc(NCc2cc(N3CCN(C)CC3)ccc2C#N)cc1 [Compound 21, 4-(4-methylpiperazin-1-yl)-2-(p-isopropylphenylamino)methylbenzonitrile] was run?
**A.** 90%

**Q.** With CCCN1CCN(c2ccc(C#N)c(CN(C)c3ccc(Oc4ccccc4)cc3)c2)CC1 [Compound 22, 4-(4-propylpiperazin-1-yl)-2-((p-phenoxyphenyl)(methyl)amino)methylbenzonitrile] as the compound, how does the inhibition at 10 µM read?
**A.** 86%

**Q.** How did the inhibition at 10 µM turn out when CCCN1CCN(c2ccc(C#N)c(CNc3ccc(Sc4ccccc4)cc3)c2)CC1 [Compound 23, 4-(4-propylpiperazin-1-yl)-2-(p-(phenylthio)phenylamino)methylbenzonitrile] was run?
**A.** 78%

**Q.** How did the inhibition at 10 µM turn out when CN1CCN(c2ccc(C#N)c(CNc3ccc(C4CCCC4)cc3)c2)CC1 [Compound 24, 4-(4-methylpiperazin-1-yl)-2-(p-cyclopentylphenylamino)methylbenzonitrile] was run?
**A.** 94%

**Q.** With COc1ccc(N(C)Cc2cc(N3CC(C)NC(C)C3)ccc2C#N)cc1 (centres unmarked) [Compound 25, 4-(3,5-dimethylpiperazin-1-yl)-2-((p-methoxyphenyl)(methyl)amino)methylbenzonitrile] as the compound, how does the inhibition at 10 µM read?
**A.** 75%

**Q.** How did the inhibition at 10 µM turn out when Cc1ccc(NCc2cc(NCCN3CCCCC3)ccc2C#N)cc1 [Compound 28, 4-((2-(piperidin-1-yl)ethyl)amino)-2-(p-methylphenylamino)methylbenzonitrile] was run?
**A.** 65%

**Q.** How did the inhibition at 10 µM turn out when COc1ccc(NCc2cc(NCN3CCCCC3)ccc2C#N)cc1 [Compound 31, 2-((4-methoxyphenyl)amino)methyl-4-(piperidin-1-ylmethyl)aminobenzonitrile] was run?
**A.** 61%

**Q.** With CN(C)CNc1ccc(C#N)c(CNc2ccc(C(C)(C)C)cc2)c1 [Compound 32, 2-((4-tert-butylphenyl)amino)methyl-4-((N,N-dimethylamino)methyl)aminobenzonitrile] as the compound, how does the inhibition at 10 µM read?
**A.** 73%

Same assay, conditions: compound at 10 μmol/L; Huh7.5 cells infected with HCV virus particles; cultured 96 hrs; HCV RNA in cells vs virus control group

**Q.** Which “percent inhibition (%)” value does the source give for Cc1ccc(NCc2cc(NCCCN(C)C)ccc2C#N)cc1 [Compound 26, 4-(N,N-dimethyl-1,3-propanediamin-1-yl)-2-(p-methylphenylamino)methylbenzonitrile] here?
**A.** 79%

**Q.** CN(C)CCCNc1ccc(C#N)c(CNc2ccccc2)c1 [Compound 27, 4-(N,N-dimethyl-1,3-propanediamin-1-yl)-2-(phenylamino)methylbenzonitrile] was tested. Which “percent inhibition (%)” value did it give?
**A.** 78%

**Q.** For CN(C)CCCNc1ccc(C#N)c(CNc2ccc(Cl)cc2)c1 [Compound 29, 4-(N,N-dimethyl-1,3-propanediamin-1-yl)-2-(p-chlorophenylamino)methylbenzonitrile], which “percent inhibition (%)” value is on record?
**A.** 80%

**Q.** With COc1ccc(NCc2cc(NCCN(C)C)ccc2C#N)cc1 [Compound 30, 4-(N,N-dimethyl-1,3-ethylenediamin-1-yl)-2-(p-methoxyphenylamino)methylbenzonitrile] as the compound, how does the “percent inhibition (%)” value read?
**A.** 49%
